Source: ChEMBL document CHEMBL1140143, “Combining ligand-based pharmacophore modeling, quantitative structure-activity relationship analysis and in silico screening for the discovery of new potent hormone sensitive lipase inhibitors” (J Med Chem, 2008)

target: T1, Hormone-sensitive lipase (Rattus norvegicus, UniProt P15304); test: Inhibition of HSL in Wistar rat isolated fat cells by spectrophotometric assay
T1 sequence (P15304 whole entry): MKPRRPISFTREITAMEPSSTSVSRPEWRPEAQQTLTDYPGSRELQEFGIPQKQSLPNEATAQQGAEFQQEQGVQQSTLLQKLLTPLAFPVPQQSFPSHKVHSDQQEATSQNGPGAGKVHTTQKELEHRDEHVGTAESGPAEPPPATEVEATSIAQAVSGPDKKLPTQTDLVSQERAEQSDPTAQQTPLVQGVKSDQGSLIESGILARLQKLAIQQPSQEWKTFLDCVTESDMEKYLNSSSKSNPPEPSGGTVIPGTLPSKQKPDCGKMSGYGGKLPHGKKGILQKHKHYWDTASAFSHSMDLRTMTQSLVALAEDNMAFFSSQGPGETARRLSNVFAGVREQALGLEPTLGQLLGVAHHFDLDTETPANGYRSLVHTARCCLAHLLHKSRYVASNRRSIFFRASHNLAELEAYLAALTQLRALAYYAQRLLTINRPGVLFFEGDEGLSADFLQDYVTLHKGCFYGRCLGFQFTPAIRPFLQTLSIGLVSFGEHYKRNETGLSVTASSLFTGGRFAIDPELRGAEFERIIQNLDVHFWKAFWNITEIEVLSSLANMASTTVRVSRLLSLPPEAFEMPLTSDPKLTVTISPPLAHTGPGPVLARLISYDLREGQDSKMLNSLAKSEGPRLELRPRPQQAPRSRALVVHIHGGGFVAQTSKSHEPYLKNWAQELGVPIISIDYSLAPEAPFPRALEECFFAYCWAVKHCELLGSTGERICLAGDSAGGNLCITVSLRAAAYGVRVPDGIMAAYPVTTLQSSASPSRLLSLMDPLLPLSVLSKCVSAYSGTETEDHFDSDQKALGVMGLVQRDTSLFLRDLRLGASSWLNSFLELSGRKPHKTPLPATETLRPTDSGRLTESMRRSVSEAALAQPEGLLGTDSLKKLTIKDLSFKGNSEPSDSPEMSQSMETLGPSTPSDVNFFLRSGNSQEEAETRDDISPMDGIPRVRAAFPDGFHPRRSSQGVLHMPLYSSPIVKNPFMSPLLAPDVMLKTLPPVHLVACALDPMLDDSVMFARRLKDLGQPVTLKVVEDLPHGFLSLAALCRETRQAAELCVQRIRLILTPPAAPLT

| Compound | IC50 |
| --- | --- |
| Cc1c(C(C)C)c(=O)on1C(=O)N1CCC(C(=O)N(C)C)CC1 | > 1 µM |
| CCCCCCSc1nc(-c2ccc(Cl)cc2)nn1C(=O)N(C)c1ccccc1 | 0.00706 µM |
| Cc1c(CC(C)C)c(=O)on1C(=O)N1CCC(c2ccccc2)CC1 | 0.01 µM |
| CSc1nc(-c2ccc(Cl)cc2)nn1C(=O)N1CCCCC1 | 0.00176 µM |
| Cc1c(C(C)C)c(=O)on1C(=O)N1CCCC(CO)C1 (centres undefined) | 0.18 µM |
| Cc1c(C(C)C)c(=O)on1C(=O)N1CCN(Cc2ccccc2)CC1 | 0.065 µM |
| Cc1c(C(C)C)c(=O)on1C(=O)N1CCN(c2ncccn2)CC1 | 0.067 µM |
| CCSc1nc(-c2ccc(OC)cc2)nn1C(=O)N1CCOCC1 | 0.159 µM |
| COCCc1c(C)n(C(=O)N2CCC(c3ccccc3)CC2)oc1=O | 0.011 µM |
| Cc1c(C(C)C)c(=O)on1C(=O)N1CCC(c2ccccc2)CC1 | 0.012 µM |
| Cc1c(C(C)C)c(=O)on1C(=O)N(C)C1CCCCC1 | 0.009 µM |
| Cc1ccc(-c2nc(SCC(F)(F)F)n(C(=O)N(C)C)n2)cc1 | 0.0106 µM |
| O=C(N1CCOCC1)n1nc(-c2ccc(Cl)cc2)nc1SCC(F)(F)F | 0.159 µM |
| Cc1c(C(C)C)c(=O)on1C(=O)N1CC(C)CC(C)C1 (centres undefined) | 0.326 µM |
| Cc1c(C(C)C)c(=O)on1C(=O)N1CCC(O)(c2ccccc2)CC1 | > 1 µM |
| Cc1c(C(C)C)c(=O)on1C(=O)N1CCCC(C)(C)C1 | 0.007 µM |
| CSc1nc(-c2ccc(C)cc2)nn1C(=O)N(C)C | 0.00053 µM |
| Cc1c(C(C)C)c(=O)on1C(=O)N1CCCCCCC1 | 0.9 µM |
| Cc1c(C(C)C)c(=O)on1C(=O)N(C)CC(N)=O | > 1 µM |
| Cc1c(C(C)C)c(=O)on1C(=O)N1CCC[C@H](C)C1 | 0.003 µM |
| Cc1c(C)n(C(=O)N2CCCCC2)oc1=O | 0.013 µM |
| Cc1c(C(C)C)c(=O)on1C(=O)N1CCC(Cc2ccccc2)CC1 | 0.102 µM |
| Cc1nnc(C2CCN(C(=O)n3oc(=O)c(C(C)C)c3C)CC2)o1 | > 1 µM |
| Cc1c(C(C)C)c(=O)on1C(=O)N1CCCc2ccccc21 | 0.06 µM |
| CCCSc1nc(-c2ccc(Cl)cc2)nn1C(=O)N(C)C | 0.00106 µM |

| Compound | IC50 |
| --- | --- |
| CSc1nc(-c2ccc(-c3ccccc3)cc2)nn1C(=O)N(C)C | 0.0265 µM |
| CCSc1nc(-c2ccc(OC)cc2)nn1C(=O)N(C)c1ccccc1 | 0.00529 µM |
| Cc1c(CC(C)C)c(=O)on1C(=O)N1CCCCC1 | 0.005 µM |
| Cc1c(C2CCCC2)c(=O)on1C(=O)N1CCC(c2ccccc2)CC1 | 0.024 µM |
| Cc1c(C(C)C)c(=O)on1C(=O)N(C)c1ccccn1 | 0.24 µM |
| CSc1nc(-c2ccc(Cl)cc2)nn1C(=O)N1CCOCC1 | 0.0353 µM |
| CSc1nc(-c2ccc(C)cc2)nn1C(=O)N(C)c1ccccc1 | 0.00176 µM |
| CSc1nc(-c2ccc(C)cc2)nn1C(=O)N1CCOCC1 | 0.0706 µM |
| Cc1c(C(C)C)c(=O)on1C(=O)N1CCOCC1 | 0.052 µM |
| Cc1c(C(C)C)c(=O)on1C(=O)N1CCC(=O)CC1 | 0.2 µM |
| CCOC(=O)C1CCCN(C(=O)n2oc(=O)c(C(C)C)c2C)C1 (centres undefined) | 0.028 µM |
| Cc1c(C(C)(C)C)c(=O)on1C(=O)N1CCCCC1 | 0.014 µM |
| Cc1c(C(C)C)c(=O)on1C(=O)N(C)Cc1ccccc1 | 0.005 µM |
| Cc1c(C(C)C)c(=O)on1C(=O)N1CCN(C)CC1 | 0.314 µM |
| CCOCCc1c(C)n(C(=O)N2CCC(C)CC2)oc1=O | 0.003 µM |
| Cc1c(C(C)C)c(=O)on1C(=O)N1CCC(C)CC1 | 0.006 µM |
| Cc1c(CCOc2ccccc2)c(=O)on1C(=O)N1CCCCC1 | 0.004 µM |
| Cc1c(C2CCSCC2)c(=O)on1C(=O)N1CCCCC1 | 0.011 µM |
| CCOc1nn(-c2cccc(OCc3ccccc3)c2)c(=O)o1 | 0.0194 µM |
| Cc1c(S(=O)(=O)c2ccc(Cl)cc2)c(=O)on1C(=O)N1CCCCC1 | 0.035 µM |
| Cc1c(C(C)C)c(=O)on1C(=O)N1CCC(c2ccc(C(C)(C)C)cc2)CC1 | 0.48 µM |
| O=C(N1CCCCC1)n1nc(-c2ccc(Cl)cc2)nc1SC1CCCCC1 | 0.882 µM |
| CN(C(=O)n1nc(-c2ccc(Cl)cc2)nc1SCC(F)(F)F)c1ccccc1 | 0.003 µM |
| Cc1c(C(C)C)c(=O)on1C(=O)N(C)c1ccc(Cl)cc1 | 0.017 µM |
